From the supplement of paper PMC7017272
± gives the standard deviation of the averaged measurements.

What was measured:
Assay in all cases: drug sensitivity score (DSS); higher = more sensitive; extreme values may be limits of the assay
[1] = test system: UT-SCC-24B; conditions: treatment time: 3 days
How it was run: (§1)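 Viability of HPV-negative HNSCC cell lines was measured by CellTiter-Glo 2.0 luminescence. Cells were seeded at 500 cells/well in 384-well plates on plastic, on Matrigel- or Myogel-coated wells (500 µg/mL), or embedded in Matrigel or Myogel plus rat collagen I, then given compounds at five 10-fold concentrations for 3 days, with signals normalised to vehicle (0.1% DMSO) and cell-killing control wells. Fitting of percent-inhibition dose–response curves in the FIMM pipeline yielded IC50, maximal inhibition and drug sensitivity score.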

[2] = test system: UT-SCC-73; conditions: treatment time: 3 days
How it was run: as §1

[3] = test system: UT-SCC-81; conditions: treatment time: 3 days
How it was run: as §1

[4] = test system: UT-SCC-42A; conditions: treatment time: 3 days
How it was run: as §1

[5] = test system: UT-SCC-40; conditions: treatment time: 3 days
How it was run: as §1

[6] = test system: UT-SCC-44; conditions: treatment time: 3 days
How it was run: as §1

[7] = test system: UT-SCC-28; conditions: treatment time: 3 days
How it was run: as §1

[8] = test system: UT-SCC-42B; conditions: treatment time: 3 days
How it was run: as §1

[9] = test system: UT-SCC-8; conditions: culture condition: embedded in Matrigel; treatment time: 3 days
How it was run: as §1

[10] = culture condition: embedded in Matrigel
[11] = culture condition: embedded in Myogel + collagen I
[12] = culture condition: on top of Matrigel
[13] = culture condition: on top of Myogel
[14] = culture condition: plastic 2D (no matrix)

## COc1cc(F)c(F)c(Nc2ccc(I)cc2F)c1NS(=O)(=O)C1(C[C@H](O)CO)CC1 [Refametinib]
[1]; [10]
  drug sensitivity score: 12.4 ± 0.7 DSS
[1]; [11]
  drug sensitivity score: 10.4 ± 1.8 DSS
[1]; [12]
  drug sensitivity score: 11.8 ± 0.98 DSS
[1]; [13]
  drug sensitivity score: 6.87 ± 1 DSS
[1]; [14]
  drug sensitivity score: 16.4 ± 2.1 DSS
[2]; [10]
  drug sensitivity score: 25 ± 1.3 DSS
[2]; [11]
  drug sensitivity score: 16 ± 3.4 DSS
[2]; [12]
  drug sensitivity score: 24 ± 0.8 DSS
[2]; [13]
  drug sensitivity score: 15.1 ± 1.1 DSS
[2]; [14]
  drug sensitivity score: 20 ± 1.4 DSS
[3]; [10]
  drug sensitivity score: 29.8 ± 2 DSS
[3]; [11]
  drug sensitivity score: 5.87 ± 0.35 DSS
[3]; [12]
  drug sensitivity score: 21.1 ± 1.4 DSS
[3]; [13]
  drug sensitivity score: 5.53 ± 1.2 DSS
[3]; [14]
  drug sensitivity score: 8.8 ± 0.96 DSS
[4]; [10]
  drug sensitivity score: 18 ± 1.1 DSS
[4]; [11]
  drug sensitivity score: 8.7 ± 1.7 DSS
[4]; [12]
  drug sensitivity score: 19.2 ± 0.8 DSS
[4]; [13]
  drug sensitivity score: 11.5 ± 1.4 DSS
[4]; [14]
  drug sensitivity score: 15.3 ± 0.1 DSS
[5]; [10]
  drug sensitivity score: 26.9 ± 1.2 DSS
[5]; [11]
  drug sensitivity score: 16.8 ± 2 DSS
[5]; [12]
  drug sensitivity score: 22.5 ± 1.8 DSS
[5]; [13]
  drug sensitivity score: 14.3 ± 1.1 DSS
[5]; [14]
  drug sensitivity score: 14.1 ± 1.1 DSS
[6]; [10]
  drug sensitivity score: 23.7 ± 1.5 DSS
[6]; [11]
  drug sensitivity score: 8.1 ± 2.3 DSS
[6]; [12]
  drug sensitivity score: 18.2 ± 2.5 DSS
[6]; [13]
  drug sensitivity score: 7.4 ± 1.2 DSS
[6]; [14]
  drug sensitivity score: 15.3 ± 0.64 DSS
[7]; [10]
  drug sensitivity score: 9.8 ± 1.8 DSS
[7]; [11]
  drug sensitivity score: 4.67 ± 4.2 DSS
[7]; [12]
  drug sensitivity score: 13.2 ± 2.8 DSS
[7]; [14]
  drug sensitivity score: 4.4 ± 2.4 DSS
[8]; [10]
  drug sensitivity score: 25.5 ± 1.9 DSS
[8]; [12]
  drug sensitivity score: 15.7 ± 1.7 DSS
[8]; [13]
  drug sensitivity score: 5.27 ± 0.5 DSS
[8]; [14]
  drug sensitivity score: 8.27 ± 1.1 DSS
[9]
  drug sensitivity score: 15.7 ± 1.7 DSS
